In the test the target is T1, H1 receptor (Cavia porcellus, UniProt P31389).
T1 construct: Strips of guinea pig ileum, 2 cm in length, were set up in an isolated organ bath; from tissue; host or cells: guinea pig ileum strips
Description: guinea pig ileum screen (antagonism of histamine-induced contraction, pA2). Format: cell-based. Conditions: isolated guinea pig ileum strips, histamine dose response, 20 minutes incubation. Here is the method: It is based upon the phenomenon that histamine causes the contraction of guinea pig ileum. Antihistamine blocks this contraction. This test may be performed in the following manner:
Strips of guinea pig ileum, 2 cm in length, were set up in an isolated organ bath in tyrode's solution which had the following composition in […] (NaCl, 136.89; KCl, 2.68; CaCl2, 1.8; MgCl2, 1.05; NaH2 PO4, 0.42; NaHCO3, […] were measured isotonically (Grass FTO3C transducer coupled with silver springs) under one gram resting tension and recorded in a Grass polygraph recorder. Cumulative histamine dose response experiments were then performed before and after treatment of tissues with test compounds (20 minutes incubation). Dose ratios were determined graphically at ED50 response levels from the histamine dose response curves, and Schild plots (Arunlakshana, O. and Schild, H. O. Some quantitative uses of drug antagonists. Br. J. Pharmacol. Chemother. 14: 48-58, 1959) were constructed to determine the pA2 values using inverse regression line analysis (Finney, D. J. Statistical methods in biological assays. Hafner Press, New York, 1964). The pA2 is defined as the negative logarithm of the molar concentratrion of antagonist which would increase the ED50 value by […]. In some experiments, pA2 values were estimated according to the method described by van Rossum (Van Rossum, J. M., Cumulative dose-response curves: Technique for the making of dose-response curves in isolated organs and the evaluation of drug parameters. Arch. Int. Pharmacodyn. Ther. 143: 299-330, 1963) which uses the following relationship: pA2=-log ([B]/(dose ratio-1)), where [B] refers to the molar concentration of antagonists used. The test compounds were prepared in ethanol (0.1% v/v).

Setting [1] is: pA2 estimated by the method of Van Rossum.
Setting [2] is: pA2 by the method of Schild (Schild plots).

Structures are written as SMILES. Where a name gives a salt, the structure may show the parent alone.

This is an account of results in patent publication US5380731A, “Antiallergic compounds” (Merrell Dow Pharmaceuticals Inc., priority 1993, dated 1995).

One may read the Kb as the affinity of an antagonist, worked out from how it opposes an agonist.

T1 sequence (P31389 whole entry): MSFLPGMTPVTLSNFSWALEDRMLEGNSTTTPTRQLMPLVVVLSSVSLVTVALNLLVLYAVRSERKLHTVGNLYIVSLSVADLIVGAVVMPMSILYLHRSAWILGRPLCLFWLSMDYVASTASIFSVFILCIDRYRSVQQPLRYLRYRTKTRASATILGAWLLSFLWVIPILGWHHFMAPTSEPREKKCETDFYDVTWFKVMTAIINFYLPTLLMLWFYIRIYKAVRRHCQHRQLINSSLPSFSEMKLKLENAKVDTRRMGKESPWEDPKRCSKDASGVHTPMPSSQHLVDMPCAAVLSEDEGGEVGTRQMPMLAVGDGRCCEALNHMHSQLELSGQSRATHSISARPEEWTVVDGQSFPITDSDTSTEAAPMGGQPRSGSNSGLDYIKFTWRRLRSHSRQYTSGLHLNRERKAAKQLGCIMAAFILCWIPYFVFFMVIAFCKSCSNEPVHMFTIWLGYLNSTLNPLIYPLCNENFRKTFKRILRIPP

Consider `CCOCCn1c(C(=O)C2CCN(CCc3ccc(OC)cc3)CC2)nc2ccccc21` [Example 1, 1-[[(2-Ethoxy)ethyl]-1H-benzimidazol-2-yl][1-[2-(4-methoxyphenyl)ethyl]-4-piperidinyl]methanone hydrochloride], for which, under setting [1], the Kb is 0.407 nM. With `CCN(CC)C(=O)N1CCC(C(=O)c2nc3ccccc3n2Cc2ccc(F)cc2)CC1` [Example 6, 1-[[(4-Fluorophenyl)methyl]-1H-benzimidazol-2-yl][1-(N,N-diethylcarbamoyl)-4-piperidinyl]methanone], the “pA2 value in the guinea pig ileum screen” value under setting [1] is listed as 7.7. Under setting [2], `CN1CCC(C(O)c2nc3ccccc3n2Cc2ccc(F)cc2)CC1` (centres unmarked) [Example 29, 1-[[(4-Fluorophenyl)methyl]-1H-benzimidazol-2-yl][1-methyl-4-piperidinyl]methanol] gave a Kb of 2.34 nM. Turning to `CC(C)(C)OC(=O)N1CCC(C(=O)c2nc3ccccc3n2Cc2ccc(F)cc2)CC1` [Example 2 Step a, 1-[[(4-Fluorophenyl)methyl]-1H-benzimidazol-2-yl][1-(t-butyloxycarbonyl)-4-piperidinyl]methanone], the Kb under setting [1] was greater than 100 nM. Regarding `CC(=O)N1CCC(C(=O)c2nc3ccccc3n2Cc2ccc(F)cc2)CC1` [Example 7, 1-[[(4-Fluorophenyl)methyl]-1H-benzimidazol-2-yl-][1-(acetyl)-4-piperidinyl]methanone], the Kb under setting [1] was greater than 100 nM.

On to `O=C(c1nc2ccccc2n1Cc1ccc(F)cc1)C1CCN(C(=O)C(F)(F)F)CC1` [Example 8, 1-[[(4-Fluorophenyl)methyl]-1H-benzimidazol-2-yl][1-(trifluoroacetyl)-4-piperidinyl]methanone], for which the Kb under setting [1] is 10.2 nM. Same read-out and setting: the result for `O=C(O)CN1CCC(C(=O)c2nc3ccccc3n2Cc2ccc(F)cc2)CC1` [Example 4, 1-[[(4-Fluorophenyl)methyl]-1H-benzimidazol-2-yl][1-(carboxymethyl)-4-piperidinyl]methanone] reads 2.34 nM. The compound `COC(=O)COCCN1CCC(C(=O)c2nc3ccccc3n2Cc2ccc(F)cc2)CC1` [Example 2, 1-[[(4-Fluorophenyl)methyl]-1H-benzimidazol-2-yl][1-(carbomethoxymethoxyethyl)-4-piperidinyl]methanone] gave a Kb under setting [2] of 1.78 nM.

Turning to `CN1CCC(C(=O)c2nc3ccccc3n2Cc2ccc(F)cc2)CC1` [Example 28, 1[[(4-Fluorophenyl)methyl]-1H-benzimidazol-2-yl][1-methyl-4-piperidinyl]methanone], the Kb under setting [2] is 0.661 nM. For the compound `O=C(CN1CCC(C(=O)c2nc3ccccc3n2Cc2ccc(F)cc2)CC1)Nc1nnn[nH]1` [Example 9, 1-[[(4-Fluorophenyl)methyl]-1H-benzimidazol-2-yl][1-(tetrazoleacetamide)-4-piperidinyl]methanone], under setting [2], the Kb was 2.4 nM.

On to `CCOCCn1c(C(=O)C2CCN(C(=O)OC(C)(C)C)CC2)nc2ccccc21` [Example 1 Step a, 1-[[(2-Ethoxy)ethyl]-1H-benzimidazol-2-yl][1-(t-butyloxycarbonyl)-4-piperidinyl]methanone], for which the Kb under setting [1] was 603 nM.
